{"source": "patent US20250057826A1", "about": "“WEEKLY REGIMEN FOR HIV” (Gilead Sciences, Inc., priority 2023, published 2025)", "key": {"[1]": {"assay": "pharmacokinetics following single-dose administration of oral LEN 50-1800 mg", "assay_type": "in vivo", "conditions": "single-dose oral LEN 50-1800 mg"}, "HIV-1": {"system": "HIV-1", "assay": "virologic suppression in Phase 2/3 clinical studies", "assay_type": "in vivo, human", "conditions": "at mean trough concentration of 15.5 ng/mL (IQ4)"}, "MT-4 cells": {"system": "MT-4 cells", "assay": "in vitro protein-adjusted 95% effective concentration derived from MT-4 cells (inhibitory quotient 4)", "assay_type": "cell-based", "conditions": "4-fold greater than in vitro protein-adjusted 95% effective concentration from MT-4 cells"}, "[2]": {"assay": "2-compartment LEN population pharmacokinetic (PopPK) model from pooled clinical PK data (IV/oral/SC LEN)", "assay_type": "in vivo, human", "conditions": "column HTE", "excerpt": "PK data were pooled from several clinical studies in healthy participants and people with HIV-1 who received intravenous (IV)/oral/SC LEN and a 2-compartment LEN population pharmacokinetic (PopPK) model with first-order absorption and linear elimination was built to simulate various weekly dosing regimens (loading+maintenance doses) that can achieve efficacious LEN concentrations rapidly and be maintained through the dosing interval. Various scenarios including 1-3 weeks of missed oral dosing were simulated to evaluate the forgiveness window; these simulations were performed with the PopPK model incorporating variability and covariate effects. The model pharmacokinetic parameters for lenacapavir are provided in Table 1 where CL=clearance; Fpo=oral bioavailability; Fsc=SC bioavailability; GI=gastrointestinal; HTE=heavily treatment experienced; IIV=interindividual variability; Ka=absorption rate constant; Kdir=direct absorption rate constant; Ktr=transit absorption rate constant; PK=pharmacokinetic; Q=intercompartmental CL; Vc=volume of central compartment; Vp=volume of peripheral compartment."}}, "data": [{"smiles": "CC(C)(C#Cc1ccc(-c2ccc(Cl)c3c(NS(C)(=O)=O)nn(CC(F)(F)F)c23)c([C@H](Cc2cc(F)cc(F)c2)NC(=O)Cn2nc(C(F)(F)F)c3c2C(F)(F)[C@@H]2C[C@H]32)n1)S(C)(=O)=O", "note": "[lenacapavir, N—((S)-1-(3-(4-chloro-3-(methylsulfonamido)-1-(2,2,2-trifluoroethyl)-1H-indazol-7-yl)-6-(3-methyl-3-(methylsulfonyl)but-1-yn-1-yl)pyridin-2-yl)-2-(3,5-difluorophenyl)ethyl)-2-((3bS,4aR)-5,5-difluoro-3-(trifluoromethyl)-3b,4,4a,5-tetrahydro-1H-cyclopropa[3,4]cyclopenta[1,2-c]pyrazol-1-yl)acetamide]", "values": [{"measurement": "half-life", "setting": "[1]; human, plasma", "value": "10 to 13", "unit": "days"}, {"measurement": "oral LEN exposure increase with dose", "setting": "[1]", "value": "less than dose proportionally"}, {"measurement": "virologic suppression", "setting": "HIV-1", "value": "high rates of virologic suppression"}, {"measurement": "inhibitory quotient 4 (IQ4) mean trough concentration", "setting": "MT-4 cells", "value": 15.5, "unit": "ng/mL"}, {"measurement": "θ11: dose effect on Fpo", "setting": "[2]; PopPK covariate effect", "value": "−0.414"}, {"measurement": "θ16: HV effect on Vp", "setting": "[2]; PopPK covariate effect", "value": 1.35}, {"measurement": "θ19: pharmacoenhancer/booster effect on Fpo", "setting": "[2]; PopPK covariate effect", "value": 0.534}, {"measurement": "θ20: SC 150 mg/mL effect on Vp", "setting": "[2]; PopPK covariate effect", "value": "−0.795"}, {"measurement": "θ21: SC 150 mg/mL effect on Ktr", "setting": "[2]; PopPK covariate effect", "value": 0.433}, {"measurement": "θ10: Fsc relative to IV", "setting": "[2]; PopPK model parameter, SC bioavailability", "value": 1.02}, {"measurement": "θ6: SC Ktr", "setting": "[2]; PopPK model parameter, SC", "value": 0.00202, "unit": "h⁻¹"}, {"measurement": "θ7: SC Kdir", "setting": "[2]; PopPK model parameter, SC", "value": "1.06e-06", "unit": "s⁻¹"}, {"measurement": "θ8: SC fraction for direct absorption", "setting": "[2]; PopPK model parameter, SC", "value": 0.421}, {"measurement": "θ2: Vc", "setting": "[2]; PopPK model parameter", "value": 67.9, "unit": "L"}, {"measurement": "θ4: Vp", "setting": "[2]; PopPK model parameter", "value": 908, "unit": "L"}, {"measurement": "θ5: Q", "setting": "[2]; PopPK model parameter", "value": 41.2, "unit": "L/h"}, {"measurement": "θ9: Fpo relative to IV", "setting": "[2]; PopPK model parameter, oral bioavailability", "value": 0.0627}, {"measurement": "θ3: PO Ka", "setting": "[2]; PopPK model parameter, oral", "value": 0.0286, "unit": "h⁻¹"}, {"measurement": "σ1: residual proportion variability", "setting": "[2]; PopPK residual error", "value": 27.3, "unit": "% CV"}, {"measurement": "σ2: residual additive", "setting": "[2]; PopPK residual error", "value": 0.05, "unit": "ng/mL"}, {"measurement": "θ15: weight effect on Vc and Vp", "setting": "[2]; fixed allometric exponent", "value": 1}, {"measurement": "clearance", "setting": "[2]; human, plasma, other: pooled intravenous, oral and subcutaneous, PopPK model parameter, read-out: θ1: CL (converted)", "value": 60.3, "unit": "mL/min"}, {"measurement": "ω11: IIV on CL", "setting": "[2]; interindividual variability", "value": 43.2, "unit": "% CV"}, {"measurement": "ω22: IIV on Vc", "setting": "[2]; interindividual variability", "value": 0, "unit": "% CV"}, {"measurement": "ω33: IIV on Vp", "setting": "[2]; interindividual variability", "value": 85.4, "unit": "% CV"}, {"measurement": "ω44: IIV on Ktr", "setting": "[2]; interindividual variability", "value": 32.4, "unit": "% CV"}, {"measurement": "ω55: IIV on Ka", "setting": "[2]; interindividual variability", "value": 78.4, "unit": "% CV"}, {"measurement": "ω66: IIV on Kdir", "setting": "[2]; interindividual variability", "value": 0, "unit": "% CV"}, {"measurement": "ω77: IIV on Fsc", "setting": "[2]; interindividual variability", "value": 38.9, "unit": "% CV"}]}]}
